According to patent US5278167A, “6-pyridyl substituted pyrimidine derivatives” (Brown University Research Foundation, priority 1992, dated 1994):
Entries after “also recorded” stand apart in the source; their conditions may differ. Where two headings read alike, the source gives them in different places.

How the values were obtained:
HCT-8 cells = assay: growth inhibition of HCT-8 cells; type: cell-based, human; details: for inhibition at 1 µM / inhibition at 3 µM / inhibition at 10 µM: Homo sapiens, 72 hours; for inhibition at 1 µM: 5-FUra 1 micromolar; for inhibition at 3 µM: 5-FUra 3 micromolar
Description: (§1) In general, the experiments designed to assess the […] activity of 5-fluoropyrimidines in conjunction with the 6-pyridyl substituted pyrimidine are carried out as follows.
(§2) Screw cap plastic tissue culture tubes are seeded with identical numbers of cultured tumor cells (approximately 2×10^4 cells/tube) in 4.8 mL RPMI-1640 containing 10% Fetal Bovine Serum (FBS) and 2% HEPES (IM buffer solution). The cultures are incubated overnight, on their sides, at 37° C. in a nonhumidified […] incubator.
(§3) The following day, the number of cells in duplicate tubes is determined. The media is decanted, the cells rinsed with Hanks' Balanced Salt Solution (calcium, magnesium and bicarbonate free) and replaced with 4.0 mL of trypsin-EDTA solution. The tubes are incubated at 37° C. for 5 minutes, then shaken to loosen the cells from the tube walls. To each tube is then added 1.0 mL of FBS and medium (50:50) in order to stop the action of the trypsin. Clumps of cells are broken apart by forceful repipetting with a 10 mL glass pipette. The resulting single cell suspension is counted using trypan blue exclusion and the total number of cells per tube recorded as the starting cell number.
(§4) Cells suspended in RPMI/FBS are preincubated with or without BPTU for 30 minutes, followed by addition of a given dose of 5-FUra. Tables 1 and 2 present the cell growth inhibition after 72 hours incubation with varying concentrations of 5-FUra, in the presence or absence of preincubation with 10 micromolar BPTU.
(§5) Similarly, Table 2 reports the effects of 5-FUra used in conjunction with BPTU on ™HCT-8 cells.

[1] = system: HCT-8.clone 10 (AZT resistant) cells; assay: growth inhibition of HCT-8.clone 10 (AZT resistant) cells; type: cell-based, human; details: for inhibition at 1 µM / inhibition at 10 µM / inhibition at 100 µM: Homo sapiens, 72 hours, read-out: Percent Growth Inhibition; for inhibition at 1 µM: 5-FUra 1 micromolar; for inhibition at 100 µM: 5-FUra 100 micromolar
Description: as §1, §2, §3, §4, §5

[2] = toxicity to T4 lymphocytes (CEM cell line), uninfected toxicity control (XTT); type: cell-based; details: human, CEM cells, 6 days, read-out: toxic concentration (IC50)
Description: (§6) The procedure used to test the 6-pyridyl substituted pyrimidine derivatives activity against HIV is designed to detect agents acting at any stage of the virus reproductive cycle (see Weislow et al. (1989) J. Nat'l. Cancer Inst. 81:577-586, incorporated by reference herein). The assay basically involves the killing of T4 lymphocytes by HIV. Small amounts of HIV are added to cells, and a complete cycle of virus reproduction is necessary to obtain the required cell killing. Agents that interact virions, cells, or virus gene-products to interfere with viral activities will protect cells from cytolysis. All tests are compared with at least one positive (e.g., AZT-treated) control done at the same time under identical conditions.
(§7) 1. The candidate pyrimidine derivative is dissolved in dimethyl sulfoxide then diluted 1:100 in cell culture medium before preparing serial half-log10 dilutions. T4 lymphocytes (CEM cell line) are added and after a brief interval HIV-1 is added, resulting in a 1:200 final dilution of the compound. […]
(§8) 4. Individual wells are analyzed spectrophotomically to quantitate formazan production, and in addition are viewed microscopically for detection of viable cells and confirmation of protective activity. […]
(§9) The anti-HIV activity profile of 1-benzyloxymethyl-5-ethyl-6-(α-pyridylthio) uracil determined by this procedure has been graphically represented in FIG. 1.

HIV-1 = assay: anti-HIV activity: protection of T4 lymphocytes from HIV-1 cytolysis (XTT); type: cell-based; details: HIV-1 in CEM cells
Description: as §6, §7, §8, §9

[3] = with BPTU (10 micromolar) preincubated 30 minutes, read-out: Percent Growth Inhibition
[4] = without BPTU, read-out: Percent Growth Inhibition
[5] = with BPTU (10 micromolar) preincubated 30 minutes

Compound: O=c1[nH]cc(F)c(=O)[nH]1 [Example 5-FUra, 5-fluorouracil]
- inhibition at 1 µM (HCT-8 cells; [3]): 33%
- inhibition at 1 µM (HCT-8 cells; [4]): 0%
- inhibition at 3 µM (HCT-8 cells; [3]): 55%
- inhibition at 3 µM (HCT-8 cells; [4]): 9%
- inhibition at 10 µM (HCT-8 cells; 5-FUra 10 micromolar, with BPTU (10 micromolar) preincubated 30 minutes, P<0.01, read-out: Percent Growth Inhibition): 80%
- inhibition at 10 µM (HCT-8 cells; 5-FUra 10 micromolar, without BPTU, read-out: Percent Growth Inhibition): 33%
- inhibition at 1 µM [1, 5]: 23%
- inhibition at 1 µM ([1]; without BPTU): 0%
- inhibition at 10 µM ([1]; 5-FUra 10 micromolar, with BPTU (10 micromolar) preincubated 30 minutes, P<0.01): 74%
- inhibition at 10 µM ([1]; 5-FUra 10 micromolar, without BPTU): 29%
- inhibition at 100 µM [1, 5]: > 100%
- inhibition at 100 µM ([1]; without BPTU): 56%

Compound: CCc1c(Sc2ccccn2)n(COCc2ccccc2)c(=O)[nH]c1=O [BPTU, 1-benzyloxymethyl-5-ethyl-6-(α-pyridylthio) uracil]
- inhibition at 10 µM (HCT-8 cells; 5-FUra 0, with BPTU (10 micromolar) alone, read-out: Percent Growth Inhibition): 0%
- growth inhibitory activity alone (HCT-8 cells; alone at 10 micromolar): not shown to be growth inhibitory
- inhibition of cell growth in combination with 5-FUra (HCT-8 cells; combination with 5-FUra vs 5-FUra alone): more effectively than 5-FUra alone; also recorded: more effectively than 5FUra alone
- CC50 at 144 h [2]: > 980 nM
- inhibition at 10 µM ([1]; 5-FUra 0, with BPTU (10 micromolar) alone): 0%
- growth inhibitory activity alone ([1]; alone at 10 micromolar, HCT-8.clone 10): not shown to be growth inhibitory
- inhibition of cell growth in combination with 5-FUra ([1]; combination with 5-FUra vs 5-FUra alone, HCT-8.clone 10): more effectively than 5FUra alone
- therapeutic index (TI50) (HIV-1; 8640 min): > 1.1e+06 mM
- EC50 (HIV-1; Human immunodeficiency virus 1, CCRF-CEM, 144 h, 6 days, XTT, read-out: effective concentration (EC50)): 0.9 nM
